Earlier results in the CATMoS acute toxicity set (Mansouri et al. 2021).
“And” between values parts separate entries of the source, which are not always exact repeats. Equal entries are not always repeated.

Assay: rat acute oral toxicity
Conditions: in vivo

Row | SMILES | LD50
1 | CCOP(=S)(OCC)SCSC(C)C | 1.1 mg/kg
2 | CCCCCCCCOC(=O)CC(C(=O)OCCCCCCCC)S(=O)(=O)O (stereo not given) | 1900 mg/kg
3 | COc1cc(OC)c(C(=O)CCCN2CCCC2)c(OC)c1 | 410 mg/kg
4 | COc1cc(Br)c2oc(C3CCNCC3)cc2c1 | 310 mg/kg
5 | CCCCC(CC)COC(C)=O (stereo not given) | 3000 mg/kg
6 | CCC(C)NP1(=S)OCc2cc([N+](=O)[O-])ccc2O1 (stereo not given) | 125 mg/kg
7 | CC(C(=O)O)c1ccc2c(c1)CC(C(C)C)C2 (stereo not given) | 1500 mg/kg
8 | CC(=O)OCCC(C)CCC=C(C)C (stereo not given) | 6800 mg/kg
9 | COc1c(C)c2c(c(O)c1C/C=C(\C)CCC(=O)O)C(=O)OC2 | 352 mg/kg
10 | Cc1ccc(Cl)cc1Cl | 2400 mg/kg
11 | CCC(=O)c1ccc2c(c1)N(CCCN1CCN(C)CC1)c1ccccc1S2 | 600 mg/kg
12 | Cc1ccc2c(c1)C1CN(CCCC(=O)c3ccc(F)cc3)CCC1N2 (stereo not given) | 812 mg/kg
13 | Cc1cc2[nH]c(C(F)(F)F)nc2c([N+](=O)[O-])c1C | 67 mg/kg
14 | Cc1cc(Cl)ccc1N=CN(C)C | 160 mg/kg
15 | CC1CCCc2ccccc21 (stereo not given) | 6700 mg/kg
16 | CC1C(=O)OC2CCN3CC=C(COC(=O)C(C)(O)C1(C)O)C23 (stereo not given) | 45.5 mg/kg
17 | OCCCO | 15000 mg/kg
18 | CNC(=O)N1C(=O)CN=C(c2ccccc2)c2cc([N+](=O)[O-])ccc21 | 2280 mg/kg
19 | COc1ccc(C(=O)Nc2ccccc2CCC2CCCCN2C)cc1 (stereo not given) | 57 mg/kg
20 | CCOP(=O)(OCC)SCSP(=O)(OCC)OCC | 12.8 mg/kg
21 | O=C(O)CCCC(=O)O | 6000 mg/kg
22 | COc1ccc2cc(C(C)C(=O)OCCOCCO)ccc2c1 (stereo not given) | 638 mg/kg
23 | CC(C)(c1ccccc1)c1ccc(O)cc1 | 1770 mg/kg
24 | O=C(C=Cc1ccccn1)OCCN1CCN(c2ccc(Cl)cc2)CC1 | 478 mg/kg

Row | SMILES | LD50
25 | c1ccc(P(C2CCCCC2)C2CCCCC2)cc1 | 820 mg/kg
26 | CCc1c(C)nc2cccc(C)n2c1=O | 690 mg/kg
27 | CCOC(=O)COP(=S)(OCC)OCC | 1000 mg/kg
28 | COc1cc(C)nc(-n2nc(C)cc2OC)n1 | 445 mg/kg
29 | CCNC1=Nc2ccc(Cl)cc2C(C)(c2ccccc2)O1 (stereo not given) | 1500 mg/kg
30 | ClC(COCC(Cl)C(Cl)(Cl)Cl)C(Cl)(Cl)Cl (stereo not given) | 3630 mg/kg
31 | CCOP(=S)(OCC)SCN1C(=O)c2ccccc2C1=O | 43 mg/kg
32 | Fc1c(Cl)ccc2[nH]c(C(F)(F)F)nc12 | 5.72 mg/kg
33 | COC(=O)C=C(C)N | 1760 mg/kg
34 | Cc1ccc(N2C(=O)C=CC2=O)cc1 | 710 mg/kg
35 | Nc1ccc(N=Nc2c(S(=O)(=O)O)cc3cc(S(=O)(=O)O)c(N=Nc4ccccc4)c(O)c3c2N)cc1 | 3000 mg/kg
36 | CCN1C=CC(=C2C(=O)c3ccccc3C2=O)C=C1 | 330 mg/kg
37 | O=C(O)Cc1ccccc1 | 2250 mg/kg
38 | O=NN(CCCl)C(=O)NCCS(=O)(=O)N1CCCCC1 | 125 mg/kg
39 | O=C(O)CF | 4.68 mg/kg
40 | CCNC(N)=S | 100 mg/kg
41 | CCOS(=O)(=O)OCC | 880 mg/kg
42 | O=C1C(=NNc2ccccc2)C(S(=O)(=O)O)=Cc2cc(S(=O)(=O)O)cc(Nc3nc(Cl)nc(Cl)n3)c21 | 7460 mg/kg
43 | CCCCCCCCCC(=O)OCCN1CCN(CCCN2c3ccccc3Sc3ccc(C(F)(F)F)cc32)CC1 | 19 mg/kg
44 | O=S(=O)(NC(O)=NC1CCCCC1)c1ccc(Cl)cc1 | 1520 mg/kg
45 | CN1CCC(OC(c2ccccc2)c2ccccc2)CC1 | 698 mg/kg
46 | COc1cc(N)cn[n+]1-c1ccccc1 | 1330 mg/kg
47 | CCC(CN)=C(c1ccccc1)c1ccccc1 | 148 mg/kg
48 | N#CCC(=O)c1ccc(N)cc1 | 2260 mg/kg

Row | SMILES | LD50
49 | CN1CN(CC(=O)O)CSC1=S | 1000 mg/kg
50 | CCCCNC(=S)N(CCCC)CCCC | 3000 mg/kg
51 | O=C1OC(=O)c2ccc3c4c(ccc1c24)C(=O)OC3=O | 7400 mg/kg
52 | CCCCCCCCCC=O | 3730 mg/kg
53 | COc1cc2c3cc1Oc1cc(ccc1O)C[C@@H]1c4c(cc(OC)c(O)c4Oc4ccc(cc4)C[C@@H]3N(C)CC2)CC[N+]1(C)C | 28 mg/kg
54 | CCOc1c(N2CCOCC2)cnn(C)c1=O | 1900 mg/kg
55 | Clc1cccc2ccccc12 | 2200 mg/kg and 1540 mg/kg
56 | CCCC(=O)c1ccc(N)cc1 | 84 mg/kg
57 | Cc1cccc(C)n1 | 400 mg/kg
58 | CCCCOc1c(Cl)c(Cl)c(Cl)c(Cl)c1Cl | 600 mg/kg
59 | COP(=O)(OC)OC(=C(Cl)Cl)c1ccc(Cl)cc1Cl | 109 mg/kg
60 | CCC(Br)(CC)C(=O)NC(N)=O | 316 mg/kg
61 | CCCCCCCC(=O)NO | 10700 mg/kg
62 | CC1NC(=O)c2ccccc2O1 (stereo not given) | 1020 mg/kg
63 | COc1ccc(OC)c(NC(=O)CNC(=O)Cc2ccc(C(=O)c3ccc(C)cc3)n2C)c1 | 1470 mg/kg
64 | CCOc1ccc2c(OS(=O)(=O)O)c(-c3sc4cc(OCC)ccc4c3OS(=O)(=O)O)sc2c1 | 6700 mg/kg
65 | CCN(CC)S(=O)(=O)CCNC(=O)N(CCCl)N=O | 60 mg/kg
66 | CN1C(=O)CCc2cc(C(=O)CCN3CCN(c4ccccc4)CC3)ccc21 | 500 mg/kg
67 | N#CC(Cl)(Cl)Cl | 250 mg/kg
68 | NC1=C(Cl)C(=O)c2ccccc2C1=O | 1360 mg/kg
69 | CCC[C@@H]1C[C@@H](C(=O)N[C@@H]([C@H]2O[C@H](SC)[C@H](O)[C@@H](O)[C@H]2O)[C@H](C)Cl)N(C)C1 | 2620 mg/kg and 2190 mg/kg
70 | CC1COC2(c3ccccc3Cl)c3cc(Cl)ccc3NC(=O)CN12 (stereo not given) | 4500 mg/kg
